# Earlier results, collected in US8128958B2, “Sustained release pharmaceutical composition” (Astellas Pharma Inc., priority 2003, dated 2012).
# Where a name gives a salt, the structure may show the parent alone.
# How the values were obtained:
# [1] = not given; remark: listed apart in the source
structure (smiles),measurement,setting,value
"CCOc1ccccc1OCCN[C@H](C)Cc1ccc(OC)c(S(N)(=O)=O)c1 [tamsulosin hydrochloride, (R)(−)-5-[2-[[2-(o-ethoxyphenoxy)ethyl]-amino]propyl]-2-methoxybenzenesulfonamide]",Cmax and AUC versus dose,"0.1 to 0.6 mg orally, healthy adult volunteers",increased almost in proportion to the dose administered
same,day on which plasma concentration profiles reached the steady state,repeatedly administered per os for seven days,4 days
same,adverse reactions (including abnormal clinical data) presumably related to the agent,"[1]; 104 cases among 4724 cases, research in use upon approval and post marketing surveillance in Japan",2.2%
same,"frequency of hypotension, postural hypotension, blood pressure, tachycardia and palpitation","[1]; package insert, circulatory area",less than 0.1%
same,"frequency of orthostatic syncope, headache and sleepiness","[1]; package insert, psychoneural area",less than 0.1%
